In patent US4206215A, “Antimicrobial bis-[4-(substituted-amino)-1-pyridinium]alkanes” (Sterling Drug Inc., priority 1977, dated 1980):
Where two headings read alike, the source gives them in different places.

What was measured:
S. Aureus Smith = test: In vitro antibacterial activity, MIC (modified Autotiter method); type: cell-based, Staphylococcus aureus; settings: Staphylococcus aureus, 20 h, 18-20 hours at 37° C.; read-out: MIC S. Aureus Smith
Method in brief: (§1)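 Double-strength inoculated semisynthetic broth containing glucose was dispensed onto compound dilutions. These dilutions, twofold each, were prepared in sterile water by the Autotiter from a 1,000 mcg./ml. solution, covering final levels of 500 to 0.06 mcg./ml.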

A. niger 16404 = test: In vitro antifungal activity, MIC (modified Autotiter method); type: cell-based, Aspergillus niger; settings: 18-20 hours at 37° C.; for MIC: Aspergillus niger, 16404, 20 h, read-out: MIC A. niger 16404
Method in brief: as §1

T. menta. 9129 = test: as above; type: cell-based, Trichophyton mentagrophytes; settings: 18-20 hours at 37° C.; for MIC: Trichophyton mentagrophytes, 20 h, read-out: MIC T. menta. 9129
Method in brief: as §1

S. Aureus ATCC 6538 = test: Effect of serum on bacteriostatic activity (serial tube dilution test); type: cell-based, Staphyloccocus aureus; settings: for Fold Increase in MIC S. Aureus ATCC 6538: 40% vs 0% horse serum; for MIC: Staphylococcus aureus, ATCC6538
E. Coli ATCC 8739 = test: as above; type: cell-based, Escherichia coli; settings: for Fold Increase in MIC E. Coli ATCC 8739: 40% vs 0% horse serum; for MIC: Escherichia coli, ATCC8739
Method in brief: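 Bacteriostatic potency against Escherichia coli ATCC 8739 was measured with the standard serial tube dilution test. Minimum inhibitory concentrations were determined in pairs, with the test medium either lacking serum or containing 40% horse serum heat-inactivated at 56° C. for 30 min. Serum impact was reported as the fold increase in MIC (mcg./ml.).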

[1] = system: Streptococcus mutans OMZ-61; test: Dental plaque-preventive effectiveness in the presence of sterile human saliva (50%); type: cell-based; settings: for Dental Plaque Preventive Activity in 50% saliva Minimum Effective Conc. (%): 50% sterile human saliva
Description: The dental plaque preventive activity of certain of the compounds of the present invention was determined by measuring the ability of these compounds to inhibit the production of dental plaque by Streptococcus mutans OMZ-61 as follows:
A culture medium for the plaque-producing Streptococcus mutans OMZ-61 containing 1.5 g. of BBL beef extract, 5 g. of sodium chloride, 10 g. of dehydrated trypticase, 5 g. of sucrose and sufficient distilled water to give a total volume of 1000 ml. is adjusted to pH 7.0 and sterilized by membrane filtration. The medium is dispensed aseptically in 10-ml. aliquots into 150×16 mm. test tubes and stored at refrigeration temperature until used.
Two concentrations of the compound to be tested are prepared by dissolving 100 mg. of the compound in 1 ml. of distilled water with the aid of sufficient 0.1 N sodium hydroxide, 10% dimethylsulfoxide or 10% N,N-dimethylformamide and diluting the resulting solution to 10 ml. with distilled water. This 1.0% solution and a 1:10 dilution in distilled water (0.1%) are sterilized by membrane filtration before use.
A sterile piece of plaque-free natural tooth enamel or synthetic hydroxylapatite is suspended in each concentration of compound for two 1-minute periods, each followed by a 1-minute air drying period. Each piece is then suspended and agitated for 5 minutes in individual test tubes containing sterile distilled water (rinse). They are then suspended in 10 ml. of liquid beef extract medium to which has been added 0.3 ml. of a 24-hr. anaerobic culture of Streptococcus mutans. The tubes containing the "treated" hydroxylapatite and the Streptococcus mutans are then incubated anaerobically at 37° C. for 24 hours. The same process of two 1-minute soaks in the solution of compound, each followed by 1 minute of air drying and the final 5-minute rinse is repeated before once again suspending the hydroxylapatite in a fresh tube containing 10 ml. of beef extract medium and 0.3 ml. of inoculum. At the end of the second 24-hour period, each piece of hydroxylapatite is rinsed for 1 minute in 3 successive tubes of distilled water. These are then suspended for 1 minute in a solution of F, D & C Red No. 3 dye. This staining procedure is used in order to identify more easily the development of plaque after the 48-hour period of exposure to the plaque-producing organism. The staining period is followed by another 10-second rinse to remove excess dye. Any plaque formation stains a brilliant pink. […] Active compounds are tested at successively lower doses in order to determine the minimum effective concentration. On some occasions, the interference of plaque production is caused by the inhibition of growth of the organism in the culture medium because the compound has been leached from the hydroxylapatite to produce an antibacterial level in the medium. When this occurs, the compound is tested at lower concentrations until the growth of the organism in the surrounding medium is equal to that in the nonmedicated control culture. Plaque may or may not be formed at these lower concentrations.
Dental plaque-preventive effectiveness in the presence of sterile human saliva (50%) was determined for representative examples.

[2] = system: Herpes simplex type 2 virus; test: Virucidal activity in vitro (plaque inhibition test); type: cell-based; settings: 2 mg. of test compound on growth medium
Description: Virucidal activity of representative examples against Herpes simplex type 2 virus was determined in vitro employing a procedure similar to the plaque inhibition test for detection of specific inhibitors of DNA-containing viruses published by E. C. Herrmann, Jr., Proc. Soc. Exp. Biol. Med. 107, 142 (1961) wherein 2 mg. of the test compound was placed on the surface of the growth medium.

[3] = Acute oral toxicity (ALD50); type: in vivo; settings: mouse, in vivo, po, mice, read-out: 7-Day ALD50
Description: (§2) The acute oral toxicity (ALD50) of several representative examples was determined as follows: Groups of 3 young adult male Swiss-Webster strain albino mice were fasted approximately 4 hours before medication and then medicated once orally by stomach tube.

[4] = system: young adult male Swiss-Webster strain albino mice; test: Acute oral toxicity (ALD50); type: in vivo
Description: as §2

[5] = 40% heat inactivated horse serum, read-out: MIC S. Aureus ATCC 6538 40% Serum
[6] = read-out: MIC S. Aureus ATCC 6538 0% Serum
[7] = 40% heat inactivated horse serum, read-out: MIC E. Coli ATCC 8739 40% Serum
[8] = read-out: MIC E. Coli ATCC 8739 0% Serum
[9] = suspension in 1% gum tragacanth
[10] = 125 mg/kg oral, suspension in 1% G.T.
[11] = 250 mg/kg oral, suspension in 1% G.T.
[12] = 500 mg/kg oral, suspension in 1% G.T.
[13] = 1000 mg/kg oral, suspension in 1% G.T.
[14] = 125 mg/kg oral, aqueous solution
[15] = 250 mg/kg oral, aqueous solution
[16] = 500 mg/kg oral, aqueous solution

Row | Compound | MIC (S. Aureus Smith) | MIC (A. niger 16404) | MIC (T. menta. 9129) | Fold Increase in MIC S. Aureus ATCC 6538 (S. Aureus ATCC 6538) | MIC (S. Aureus ATCC 6538; [5]) | MIC (S. Aureus ATCC 6538; [6]) | Fold Increase in MIC E. Coli ATCC 8739 (E. Coli ATCC 8739) | MIC (E. Coli ATCC 8739; [7]) | MIC (E. Coli ATCC 8739; [8]) | Dental Plaque Preventive Activity in 50% saliva Minimum Effective Conc. (%) [1] | Virucidal activity against Herpes simplex type 2 virus [2] | LD50 at 168 h [3, 9] | Mortality 7 Days [4, 10] | Mortality 24 Hrs [4, 10] | Mortality 7 Days [4, 11] | Mortality 24 Hrs [4, 11] | Mortality 7 Days [4, 12] | Mortality 24 Hrs [4, 12] | Mortality 7 Days [4, 13] | Mortality 24 Hrs [4, 13] | other results
1 | CCCCCCCNc1cc[n+](CCCCCCCCC[n+]2ccc(NCCCCCCC)cc2)cc1 [Example 24, 1,9-bis-[4-(heptylamino)-1-pyridinium]nonane dibromide] | 0.25 µg/mL | 3.9 µg/mL | 0.5 µg/mL | 16 fold | 1.95 µg/mL | 0.125 µg/mL | 32 fold | 7.8 µg/mL | 0.25 µg/mL | Ca. 0.005% | active | > 1000 mg/kg | 0/3 | 0/3 | 0/3 | 0/3 | 1/3 | 0/3 | 0/3 | 0/3 | 
2 | CCCCC(CC)CNc1cc[n+](CCCCCCCCCC[n+]2ccc(NCC(CC)CCCC)cc2)cc1 (stereo not shown) [Example 58, 1,10-bis-[4-(2-ethylhexylamino)-1-pyridinium]decane dibromide] | 0.24 µg/mL |  | 0.76 µg/mL | 16 fold | 3.9 µg/mL | 0.25 µg/mL | 32 fold | 15.6 µg/mL | 0.5 µg/mL | Ca. 0.005% | active | > 1000 mg/kg | 0/3 | 0/3 | 0/3 | 0/3 | 0/3 | 0/3 | 0/3 | 0/3 | MIC A. niger 16404 (A. niger 16404): 6.0 µg/mL
3 | CCCCCCCNc1cc[n+](CCCCCCCCCCCC[n+]2ccc(NCCCCCCC)cc2)cc1 [Example 3, 1,12-bis-[4-(heptylamino)-1-pyridinium]dodecane dibromide] | 0.39 µg/mL |  |  | 8 fold | 3.12 µg/mL | 0.39 µg/mL | 32 fold | 25 µg/mL | 0.78 µg/mL | 0.1% | active | 1000 mg/kg | 0/3 | 0/3 | 0/3 | 0/3 | 1/3 | 0/3 | 1/3 | 1/3 | MIC A. niger 16404 (A. niger 16404): 3.13 µg/mL; MIC T. menta. 9129 (T. menta. 9129): 1.56 µg/mL; LD50 at 168 h ([3]; aqueous solution): 315 mg/kg; Mortality 7 Days [4, 14]: 0/3; Mortality 24 Hrs [4, 14]: 0/3; Mortality 7 Days [4, 15]: 1/3; Mortality 24 Hrs [4, 15]: 1/3; Mortality 7 Days [4, 16]: 3/3; Mortality 24 Hrs [4, 16]: 2/3
4 | CCCCCCCCNc1cc[n+](CCCCCCCC[n+]2ccc(NCCCCCCCC)cc2)cc1 [Example 11, 1,8-bis-[4-(octylamino)-1-pyridinium]octane dibromide] | 0.25 µg/mL | 3.9 µg/mL | 0.5 µg/mL | 16 fold | 7.8 µg/mL | 0.5 µg/mL | 64 fold | 31.2 µg/mL | 0.5 µg/mL | 0.05% | active | > 1000 mg/kg | 0/3 | 0/3 | 0/3 | 0/3 | 1/3 | 0/3 | 0/3 | 0/3 | 
5 | CCCCCCNc1cc[n+](CCCCCCCCCCCCCC[n+]2ccc(NCCCCCC)cc2)cc1 [Example 5C, 1,14-bis-[4-(hexylamino)-1-pyridinium]tetradecane dibromide] | 0.38 µg/mL | 3 µg/mL | 0.76 µg/mL | 32 fold | 3.12 µg/mL | 0.1 µg/mL | 32 fold | 25 µg/mL | 0.78 µg/mL | 0.05% | active | > 1000 mg/kg | 0/3 | 0/3 | 0/3 | 0/3 | 0/3 | 0/3 | 1/3 | 1/3 | Plaque formation in 50% saliva plaque test (footnote 1) ([1]; 0.005%, 50% saliva): plaque formed; Bacterial growth in 50% saliva plaque test (footnote 1) ([1]; 0.05% concentration, 50% saliva): No bacterial growth
